The values that follow come from US20070276025A1, “Indirubin-Type Compounds, Compositions, and Methods for Their Use” (priority 2003, published 2007).

pEC50, pIC50: −log10 of the molar value. Like-named read-outs stand apart in the source and are kept apart here. A value given as a limit tells only on which side of the number the result lay.

Data set [1] addresses T1, protein kinase C α (Homo sapiens, UniProt P17252). Briefly: protein kinase C α assay. The conditions noted are these: read-out: IC50 protein kinase C α; Table 2, 15 μM ATP.
A further data set addresses protein kinase C β1 (Homo sapiens, UniProt P05771). Briefly: protein kinase C β1 assay. The conditions noted are these: read-out: IC50 protein kinase C β1; Table 2, 15 μM ATP.
Another data set concerns the target AhR (Homo sapiens, UniProt P35869).
Data set [2] concerns the target T2, protein kinase C ε (Homo sapiens, UniProt Q02156).
T2 sequence (Q02156 1-737): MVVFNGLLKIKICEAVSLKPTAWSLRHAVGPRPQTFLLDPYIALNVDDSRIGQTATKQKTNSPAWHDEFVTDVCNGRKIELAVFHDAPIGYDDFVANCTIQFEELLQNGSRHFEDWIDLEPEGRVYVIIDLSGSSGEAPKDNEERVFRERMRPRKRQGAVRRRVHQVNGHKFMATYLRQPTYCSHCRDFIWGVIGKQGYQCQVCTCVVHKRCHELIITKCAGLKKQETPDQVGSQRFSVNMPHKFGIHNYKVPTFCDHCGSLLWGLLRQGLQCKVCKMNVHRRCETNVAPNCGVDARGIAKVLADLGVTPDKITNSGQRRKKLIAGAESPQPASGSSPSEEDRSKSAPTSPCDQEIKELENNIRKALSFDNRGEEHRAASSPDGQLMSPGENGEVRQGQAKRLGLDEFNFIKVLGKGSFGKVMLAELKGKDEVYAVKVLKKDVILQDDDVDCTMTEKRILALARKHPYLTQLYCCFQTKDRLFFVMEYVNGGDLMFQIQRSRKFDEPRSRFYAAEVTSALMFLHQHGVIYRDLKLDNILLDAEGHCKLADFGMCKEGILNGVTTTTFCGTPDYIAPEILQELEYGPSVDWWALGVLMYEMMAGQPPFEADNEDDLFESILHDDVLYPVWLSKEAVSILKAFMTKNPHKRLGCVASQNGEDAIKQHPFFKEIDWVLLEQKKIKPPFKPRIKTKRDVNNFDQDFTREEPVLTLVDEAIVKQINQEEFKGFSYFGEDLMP
The data set is described as follows: protein kinase C ε assay. The conditions noted are these: read-out: IC50 protein kinase C ε; Table 2, 15 μM ATP.

Another data set has as its target CDK5/p25 (Homo sapiens, UniProt Q00535). Briefly: CDK5/p25 kinase assay (histone H1, 15 μM ATP). The class given is biochemical, mammalian. The conditions noted are these: read-out: IC50 CDK5/p25.
The target in another data set is CDK1/cyclin B. The data set is described as follows: CDK1/cyclin B kinase assay (histone H1, 15 μM ATP). It is filed as biochemical, starfish (Marthasterias glacialis).
The next data set concerns cAMP-dependent PK. The data set is described as follows: cAMP-dependent PK assay. The conditions noted are these: read-out: IC50 cAMP-dependent PK; Table 2, 15 μM ATP.
In another data set the target is erk2 (Homo sapiens, UniProt P28482). Briefly: erk2 kinase assay. The conditions noted are these: read-out: IC50 erk2; Table 2, 15 μM ATP.
In a further data set the target is CDK2/cyclin A (Homo sapiens, UniProt P24941). The data set is described as follows: CDK2/cyclin A kinase assay. The conditions noted are these: read-out: IC50 CDK2/cyclin A; Table 2, 15 μM ATP.
In a further data set the target is protein kinase C β2 (Homo sapiens, UniProt P05771). More on the design: made in house. The conditions noted are these: Table 2, data from Hoessel et al. (1999); cited from earlier work.
The subject of data set [3] is p27^KIP1 in 5L (AhR +/+) cells. Briefly: p27KIP1 expression by Western blotting, 5L cells. It is filed as cell-based, mouse.
For data set [4], the target named is T1, protein kinase C α. More on the design: made in house. The conditions noted are these: Table 2, data from Hoessel et al. (1999); cited from earlier work.
Data set [5] has as its target T2, protein kinase C ε. More on the design: made in house. The conditions noted are these: Table 2, data from Hoessel et al. (1999); cited from earlier work.
The test system of a further data set is cGMP-dependent PK. The conditions noted are these: Table 2, data from Hoessel et al. (1999); cited from earlier work.
The target of the next data set is CDK4/cyclin D1 (Homo sapiens, UniProt P11802). More on the design: made in house. The conditions noted are these: Table 2, data from Hoessel et al. (1999); cited from earlier work.
Data set [6] deals with BP8 (AhR −/−) hepatoma cells. The data set is described as follows: Cell viability MTT assay, BP8 cells. It is filed as cell-based, mouse. The conditions noted are these: range of concentrations, 24 and 48 hr. On the technique in general: Tetrazolium assays rely on reduction of a dye to a coloured formazan, in cell work by metabolically active cells.
The target of a further data set is T3, protein kinase C ζ (Homo sapiens, UniProt Q05513).
T3 sequence (Q05513 1-592): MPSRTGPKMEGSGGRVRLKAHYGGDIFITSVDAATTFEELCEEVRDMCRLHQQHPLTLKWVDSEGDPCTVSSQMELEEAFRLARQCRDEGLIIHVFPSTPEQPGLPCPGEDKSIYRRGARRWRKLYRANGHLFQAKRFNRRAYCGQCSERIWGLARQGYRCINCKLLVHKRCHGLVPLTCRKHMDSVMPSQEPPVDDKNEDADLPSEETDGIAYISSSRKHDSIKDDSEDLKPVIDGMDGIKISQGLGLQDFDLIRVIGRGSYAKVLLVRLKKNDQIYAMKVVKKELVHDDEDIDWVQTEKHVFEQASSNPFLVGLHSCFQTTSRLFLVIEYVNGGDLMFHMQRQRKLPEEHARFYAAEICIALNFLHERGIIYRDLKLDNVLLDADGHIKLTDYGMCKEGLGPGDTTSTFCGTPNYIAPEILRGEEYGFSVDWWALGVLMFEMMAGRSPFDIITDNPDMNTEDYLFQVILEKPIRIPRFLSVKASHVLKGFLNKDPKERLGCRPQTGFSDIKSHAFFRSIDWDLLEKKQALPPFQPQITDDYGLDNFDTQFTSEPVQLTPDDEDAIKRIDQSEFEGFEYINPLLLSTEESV
More on the design: made in house. The conditions noted are these: Table 2, data from Hoessel et al. (1999); cited from earlier work.

In a further data set the test system is MAPKK. The conditions noted are these: Table 2, data from Hoessel et al. (1999); cited from earlier work.
The next data set addresses protein kinase C δ (Homo sapiens, UniProt Q05655). More on the design: made in house. The conditions noted are these: Table 2, data from Hoessel et al. (1999); cited from earlier work.
For the next data set, the target named is casein kinase 2. The conditions noted are these: Table 2, data from Hoessel et al. (1999); cited from earlier work.
The mark [7] stands for this setting: Table 1, read-out: IC50 CDK1/cyclin B.
The mark [8] stands for this setting: Table 2, 15 μM ATP, read-out: IC50 CDK1/cyclin B.
[9] abbreviates: Table 4, read-out: IC50 CDK1/cycin B.
The mark [10] stands for this setting: Table 5, read-out: IC50 CDK1/cyclin B.

Chain of CDK5/p25 (Q00535 whole entry, species assumed): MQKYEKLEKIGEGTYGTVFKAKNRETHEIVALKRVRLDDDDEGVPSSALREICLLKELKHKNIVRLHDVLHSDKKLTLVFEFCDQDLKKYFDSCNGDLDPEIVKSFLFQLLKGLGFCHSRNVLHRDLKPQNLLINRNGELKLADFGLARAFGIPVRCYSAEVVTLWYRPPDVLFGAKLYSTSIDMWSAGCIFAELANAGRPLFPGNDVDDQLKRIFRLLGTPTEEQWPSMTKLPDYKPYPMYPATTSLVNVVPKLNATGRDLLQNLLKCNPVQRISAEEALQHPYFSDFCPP
Chain of CDK5/p25 (Q15078 99-307 partner limits assumed, species assumed): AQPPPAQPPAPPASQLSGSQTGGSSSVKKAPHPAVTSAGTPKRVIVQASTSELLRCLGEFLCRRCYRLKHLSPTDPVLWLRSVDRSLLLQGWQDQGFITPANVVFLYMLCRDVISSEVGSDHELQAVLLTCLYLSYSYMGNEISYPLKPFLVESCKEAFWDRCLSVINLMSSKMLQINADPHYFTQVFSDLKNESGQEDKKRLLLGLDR
Chain of erk2 (P28482 whole entry, species assumed): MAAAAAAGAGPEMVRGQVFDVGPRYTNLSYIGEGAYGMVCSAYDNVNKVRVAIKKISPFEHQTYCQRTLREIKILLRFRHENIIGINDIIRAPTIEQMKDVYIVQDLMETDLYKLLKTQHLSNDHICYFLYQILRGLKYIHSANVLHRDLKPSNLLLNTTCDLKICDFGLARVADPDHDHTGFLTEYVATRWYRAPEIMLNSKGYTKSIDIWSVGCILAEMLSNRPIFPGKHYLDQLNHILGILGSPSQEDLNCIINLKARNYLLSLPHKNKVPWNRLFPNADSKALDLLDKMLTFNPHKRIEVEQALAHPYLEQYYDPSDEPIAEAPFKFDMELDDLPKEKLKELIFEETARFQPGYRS
Chain of protein kinase C β1 (P05771 whole entry): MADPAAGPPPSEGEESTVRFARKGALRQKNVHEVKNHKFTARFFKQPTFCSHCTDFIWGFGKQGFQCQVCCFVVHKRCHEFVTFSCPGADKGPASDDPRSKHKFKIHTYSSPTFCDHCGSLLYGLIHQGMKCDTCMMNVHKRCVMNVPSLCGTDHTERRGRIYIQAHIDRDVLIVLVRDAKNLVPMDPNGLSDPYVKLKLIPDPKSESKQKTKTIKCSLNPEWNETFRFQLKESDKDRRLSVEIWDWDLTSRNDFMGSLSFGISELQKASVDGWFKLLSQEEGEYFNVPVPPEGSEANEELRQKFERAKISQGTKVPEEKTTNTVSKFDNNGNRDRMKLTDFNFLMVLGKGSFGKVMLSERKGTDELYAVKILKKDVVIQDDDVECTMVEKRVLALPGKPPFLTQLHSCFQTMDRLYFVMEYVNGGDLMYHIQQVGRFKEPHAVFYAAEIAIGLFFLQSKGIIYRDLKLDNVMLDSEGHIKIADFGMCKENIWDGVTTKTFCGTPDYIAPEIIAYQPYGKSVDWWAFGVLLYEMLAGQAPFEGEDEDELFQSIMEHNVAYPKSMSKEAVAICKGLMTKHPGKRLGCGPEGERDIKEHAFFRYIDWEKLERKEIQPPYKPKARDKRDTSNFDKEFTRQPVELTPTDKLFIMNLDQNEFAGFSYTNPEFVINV
Chain of AhR (P35869 11-848): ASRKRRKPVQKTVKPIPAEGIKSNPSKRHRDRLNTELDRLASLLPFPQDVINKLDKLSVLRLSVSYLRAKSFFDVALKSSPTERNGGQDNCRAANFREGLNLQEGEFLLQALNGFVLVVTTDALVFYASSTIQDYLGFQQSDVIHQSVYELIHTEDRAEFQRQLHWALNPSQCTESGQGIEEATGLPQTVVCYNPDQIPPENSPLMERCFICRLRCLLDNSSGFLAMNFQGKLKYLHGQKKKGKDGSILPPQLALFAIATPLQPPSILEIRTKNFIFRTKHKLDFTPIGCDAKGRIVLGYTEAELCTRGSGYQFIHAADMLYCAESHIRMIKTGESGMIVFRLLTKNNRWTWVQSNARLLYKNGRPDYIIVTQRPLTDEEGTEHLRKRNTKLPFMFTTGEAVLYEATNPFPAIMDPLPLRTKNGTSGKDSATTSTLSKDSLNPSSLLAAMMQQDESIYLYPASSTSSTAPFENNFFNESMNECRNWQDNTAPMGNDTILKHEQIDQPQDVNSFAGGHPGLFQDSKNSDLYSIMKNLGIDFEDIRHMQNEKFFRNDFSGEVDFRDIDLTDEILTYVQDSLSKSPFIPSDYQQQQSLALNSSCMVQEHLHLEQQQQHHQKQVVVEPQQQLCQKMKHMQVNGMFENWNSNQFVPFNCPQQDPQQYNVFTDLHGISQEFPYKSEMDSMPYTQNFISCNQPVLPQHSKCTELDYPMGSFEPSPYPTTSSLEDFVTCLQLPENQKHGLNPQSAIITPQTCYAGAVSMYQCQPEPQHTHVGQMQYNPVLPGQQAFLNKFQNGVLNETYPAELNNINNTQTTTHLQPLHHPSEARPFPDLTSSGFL
Chain of AhR (P27540 whole entry partner): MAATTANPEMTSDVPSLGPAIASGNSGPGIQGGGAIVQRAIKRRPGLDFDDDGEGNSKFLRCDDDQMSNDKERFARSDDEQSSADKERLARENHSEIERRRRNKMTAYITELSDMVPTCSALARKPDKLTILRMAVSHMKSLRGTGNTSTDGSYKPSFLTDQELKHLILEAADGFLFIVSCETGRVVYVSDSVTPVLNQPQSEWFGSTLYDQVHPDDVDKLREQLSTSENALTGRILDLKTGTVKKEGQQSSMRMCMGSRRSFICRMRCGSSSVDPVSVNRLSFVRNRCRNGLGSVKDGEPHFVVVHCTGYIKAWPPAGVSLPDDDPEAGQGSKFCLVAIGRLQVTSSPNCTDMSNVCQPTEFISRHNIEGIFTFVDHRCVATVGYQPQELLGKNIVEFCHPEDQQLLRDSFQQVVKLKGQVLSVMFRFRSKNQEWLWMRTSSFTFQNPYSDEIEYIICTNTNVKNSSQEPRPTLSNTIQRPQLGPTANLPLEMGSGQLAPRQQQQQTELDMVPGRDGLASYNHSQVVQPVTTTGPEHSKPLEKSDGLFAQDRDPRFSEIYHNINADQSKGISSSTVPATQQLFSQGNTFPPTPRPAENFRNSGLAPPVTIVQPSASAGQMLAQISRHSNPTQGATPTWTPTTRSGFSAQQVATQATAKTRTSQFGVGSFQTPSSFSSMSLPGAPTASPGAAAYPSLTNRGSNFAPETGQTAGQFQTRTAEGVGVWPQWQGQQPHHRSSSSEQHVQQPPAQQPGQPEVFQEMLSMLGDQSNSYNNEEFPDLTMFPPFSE
Chain of protein kinase C β2 (P05771 1-673 isoform P05771-2): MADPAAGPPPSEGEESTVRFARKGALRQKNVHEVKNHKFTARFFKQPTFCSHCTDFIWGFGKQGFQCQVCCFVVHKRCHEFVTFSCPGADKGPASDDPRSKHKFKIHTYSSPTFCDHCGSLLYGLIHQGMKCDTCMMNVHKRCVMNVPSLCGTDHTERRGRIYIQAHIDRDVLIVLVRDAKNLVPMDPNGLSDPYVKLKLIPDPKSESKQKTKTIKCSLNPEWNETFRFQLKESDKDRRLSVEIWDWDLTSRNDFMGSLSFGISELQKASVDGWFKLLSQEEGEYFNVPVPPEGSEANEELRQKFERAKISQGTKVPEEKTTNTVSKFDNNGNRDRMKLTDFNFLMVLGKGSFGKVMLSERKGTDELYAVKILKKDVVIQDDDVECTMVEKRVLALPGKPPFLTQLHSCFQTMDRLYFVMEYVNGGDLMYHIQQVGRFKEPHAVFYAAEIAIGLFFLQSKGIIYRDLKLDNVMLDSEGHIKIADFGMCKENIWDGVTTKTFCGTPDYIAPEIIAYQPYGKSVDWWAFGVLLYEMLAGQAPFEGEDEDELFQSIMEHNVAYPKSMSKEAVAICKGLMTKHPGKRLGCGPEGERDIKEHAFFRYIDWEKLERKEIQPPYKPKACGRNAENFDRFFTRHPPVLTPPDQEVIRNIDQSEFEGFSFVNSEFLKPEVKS

For the compound `CC(=O)ON=C1C(=C2C(=O)Nc3cc(Br)ccc32)Nc2ccccc21` [8a, 6-Bromoindirubin-3′-acetoxime], the pIC50 at protein kinase C α [1] is less than 5.00; at protein kinase C β1, less than 5.00; on protein kinase C ε [2], less than 5.00; on CDK5/p25 (Table 1) it was 5.62; on CDK5/p25 (Table 5) it was 5.62; on CDK1/cyclin B (setting [7]) it was 4.20. In addition, the pIC50 is 4.20 at CDK1/cyclin B (setting [8]); 4.20 at CDK1/cyclin B (setting [9]); 4.20 at CDK1/cyclin B (setting [10]); less than 5.00 in the data set on cAMP-dependent PK; less than 5.00 on erk2; 5.37 at CDK2/cyclin A. In addition, the pEC50 on AhR was not above 7.00.
Regarding `O=C1Nc2ccccc2/C1=C1/Nc2ccccc2/C1=N\O` [7h, indirubin-3′-oxime], the pIC50 was 4.70 on protein kinase C β2; 4.57 on protein kinase C α [4]; 4.70 at protein kinase C ε [5]; 5.05 in the data set on cGMP-dependent PK; 5.48 on CDK4/cyclin D1; less than 4.00 at protein kinase C ζ. The figures for the pIC50 with MAPKK, on protein kinase C δ and at casein kinase 2 were less than 4.00, less than 4.00 and 4.92, respectively. In [3], the “p27^KIP1 expression in 5L cells” value was “modest, but detectable increase”. In addition, in data set [6], the “survival of BP8 cells (MTT)” value was “equally sensitive to IO and BIO”.
As for `CON=C1C(=C2C(=O)Nc3cc(Br)ccc32)Nc2ccccc21` [9a, 6-Bromoindirubin-3′-methoxime], the pIC50 on protein kinase C α [1] was less than 5.00; on protein kinase C β1, less than 5.00; on protein kinase C ε [2] it was less than 5.00; on CDK5/p25 (Table 1), 5.66; on CDK5/p25 (Table 5), 5.66; at CDK1/cyclin B (setting [7]) it was 5.47. The pIC50 was 5.47 on CDK1/cyclin B (setting [8]); 5.47 at CDK1/cyclin B (setting [9]); 5.43 on CDK1/cyclin B (setting [10]); less than 5.00 in the data set on cAMP-dependent PK; less than 5.00 on erk2; 4.82 at CDK2/cyclin A.

By pEC50 is commonly meant the EC50 on a negative log10 scale, so that one unit is a factor of ten.
